Measurements published in patent publication US9732119B2, “Immunomodulators” (BRISTOL-MYERS SQUIBB COMPANY, priority 2014, dated 2017).
Positions of bridges follow the written chain, without caps; N, C: chain ends. Non-standard residues stand in square brackets, D forms with d. Residues, ends and D or L forms follow the SMILES beside them. Trp(1-CH2COOH) = N[C@@H](Cc1cn(CC(=O)O)c2ccccc12)C(=O)O; Phe(4-F) = N[C@@H](Cc1ccc(F)cc1)C(=O)O; Phe(4-Me) = Cc1ccc(C[C@H](N)C(=O)O)cc1; Hyp = O=C(O)[C@@H]1C[C@@H](O)CN1; Aad = N[C@@H](CCCC(=O)O)C(=O)O; NMeNle = CCCC[C@H](NC)C(=O)O; Pip = O=C(O)[C@@H]1CCCCN1; NMeA = CN[C@@H](C)C(=O)O; Orn = NCCC[C@H](N)C(=O)O; Dab = NCC[C@H](N)C(=O)O; Dap = NC[C@H](N)C(=O)O; Ava = NCCCCC(=O)O

Molecular target: T1, PD-1-Ig binding to PD-L1-TVMV-His (PD-L1-His) (Homo sapiens, UniProt Q9NZQ7)
T1 construct: hPDL1(19-239)-TVMV-His; made in house; host or cells: HEK293T cells
T1 sequence (Q9NZQ7 with tags, fused parts or gaps): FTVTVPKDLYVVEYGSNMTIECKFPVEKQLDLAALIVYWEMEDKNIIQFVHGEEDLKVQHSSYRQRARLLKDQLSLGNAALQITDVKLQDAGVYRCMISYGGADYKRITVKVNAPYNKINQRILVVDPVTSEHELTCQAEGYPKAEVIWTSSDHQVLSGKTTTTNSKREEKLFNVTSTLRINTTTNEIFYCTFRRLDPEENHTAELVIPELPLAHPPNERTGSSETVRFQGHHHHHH
Assay: PD-1/PD-L1 Homogenous Time-Resolved Fluorescence (HTRF) binding assay
Details: PD-1-Ig (20 nM) / PD-L1-His (10 nM); numeric values
From the text: The ability of the macrocyclic peptides of the present disclosure to bind to PD-L1 was investigated using a PD-1/PD-L1 Homogenous Time-Resolved Fluorescence (HTRF) binding assay.
Homogenous Time-Resolved Fluorescence (HTRF) Assays of Binding of Soluble PD-1 to Soluble PD-L1. Soluble PD-1 and soluble PD-L1 refers to proteins with carboxyl-end truncations that remove the transmembrane-spanning regions and are fused to heterologous sequences, specifically the Fc portion of the human immunoglobuling G sequence (Ig) or the hexahistidine epitope tag (His). All binding studies were performed in an HTRF assay buffer consisting of dPBS supplemented with 0.1% (w/v) bovine serum albumin and 0.05% (v/v) Tween-20. For the PD-1-Ig/PD-L1-His binding assay, inhibitors were pre-incubated with PD-L1-His (10 nM final) for 15 m in 4 μl of assay buffer, followed by addition of PD-1-Ig (20 nM final) in 1 μl of assay buffer and further incubation for 15 m. PD-L1 fusion proteins from either human, cynomologous macaques, mouse, or other species were used. HTRF detection was achieved using europium crypate-labeled anti-Ig monoclonal antibody (1 nM final) and allophycocyanin (APC) labeled anti-His monoclonal antibody (20 nM final). Antibodies were diluted in HTRF detection buffer and 5 μl was dispensed on top of binding reaction. […] Additional binding assays were established between PD-1-Ig/PD-L2-His (20 and 5 nM, respectively), CD80-His/PD-L1-Ig (100 and 10 nM, respectively) and CD80-His/CTLA4-Ig (10 and 5 nM, respectively).
Recombinant Proteins. […] Human PD-L2-His (Sino Biologicals), CD80-His (Sino Biologicals), CTLA4-Ig (RnD Systems) were all obtained through commercial sources.

Going from `C=C(C)C[C@@H]1NC(=O)[C@H](C)N(C)C(=O)[C@H](Cc2ccccc2)NC(=O)CNC[C@@H](C(=O)NCC(N)=O)NC(=O)[C@H](CC(C)C)NC(=O)[C@H](CCCC)N(C)C(=O)[C@H](CCCC)N(C)C(=O)[C@H](Cc2c[nH]c3ccccc23)NC(=O)[C@H](CC(C)C)NC(=O)[C@H](Cc2c[nH]c3ccccc23)NC(=O)[C@@H]2CCCN2C(=O)[C@H](CC(C)C)NC(=O)[C@H](CC(C)C)NC(=O)[C@@H]2CCCN2C1=O` [Example 10005] to `CCCC[C@H]1C(=O)N(C)[C@@H](CCCC)C(=O)N[C@@H](CC(C)C)C(=O)N[C@H](C(N)=O)CNCC(=O)N[C@@H](Cc2ccc(F)cc2)C(=O)N2CCCC[C@H]2C(=O)N[C@@H](CC(=O)O)C(=O)N2CCC[C@H]2C(=O)N[C@@H](CCC(N)=O)C(=O)N[C@@H](CCC(N)=O)C(=O)N2C[C@H](O)C[C@H]2C(=O)N[C@@H](Cc2c[nH]c3ccccc23)C(=O)N[C@@H](CC(N)=O)C(=O)N[C@@H](Cc2cn(CC(=O)O)c3ccccc23)C(=O)N1C` [Example 9041], the IC50 falls from 10000 nM to 5 nM (2000-fold).

`CCCC[C@H]1C(=O)N(C)[C@@H](CCCC)C(=O)N[C@@H](CC(C)C)C(=O)NCCCCC(=O)N[C@@H](Cc2ccc(O)cc2)C(=O)N2CCCC[C@H]2C(=O)N[C@@H](CC(N)=O)C(=O)N2CCC[C@H]2C(=O)N[C@@H](CN)C(=O)N[C@@H](CCC(=O)O)C(=O)N2C[C@H](O)C[C@H]2C(=O)N[C@@H](Cc2c[nH]c3ccccc23)C(=O)N[C@@H](CCN)C(=O)N[C@@H](Cc2cn(CC(=O)O)c3ccccc23)C(=O)N1C` [Example 10513] (cyclo([Ava]Y[Pip]NP[Dap]E[Hyp]W[Dab][Trp(1-CH2COOH)][NMeNle][NMeNle]L)) gave an IC50 of 354 nM.

Same assay, conditions: PD-1-Ig (20 nM) / PD-L1-His (10 nM); range classes

`CCCC[C@H]1C(=O)N(C)[C@@H](CCCC)C(=O)N[C@@H](CC(C)C)C(=O)N[C@H](C(N)=O)COCC(=O)N[C@@H](Cc2ccc(OC)cc2)C(=O)N2CCCC[C@H]2C(=O)N[C@@H](CC(N)=O)C(=O)N2CCC[C@H]2C(=O)N[C@@H](CN)C(=O)N[C@@H](CC(C)C)C(=O)N2C[C@H](O)C[C@H]2C(=O)N[C@@H](Cc2c[nH]c3ccccc23)C(=O)N[C@@H](CCN)C(=O)N[C@@H](Cc2cn(CC(=O)O)c3ccccc23)C(=O)N1C` [Example 10528] and `CCCC[C@H]1C(=O)N(C)[C@@H](CCCC)C(=O)N[C@@H](CC(C)C)C(=O)N[C@H](C(N)=O)CNCC(=O)N[C@@H](Cc2ccc(OC)cc2)C(=O)N2CCCC[C@H]2C(=O)N[C@@H](CC(N)=O)C(=O)N2CCC[C@H]2C(=O)N[C@@H](CN)C(=O)N[C@@H](CC(C)C)C(=O)N2C[C@H](O)C[C@H]2C(=O)N[C@@H](Cc2c[nH]c3ccccc23)C(=O)N[C@@H](CCN)C(=O)N[C@@H](Cc2cn(CC(=O)O)c3ccccc23)C(=O)N1C` [Example 1042] fall in the same range of IC50: 10 to 99 nM for the first, 10 to 99 nM for the second.

`CCCC[C@H]1C(=O)N(C)[C@@H](CCCC)C(=O)N[C@@H](CCC(=O)O)C(=O)N[C@H](C(=O)NCC(N)=O)CNCC(=O)N[C@@H](Cc2ccc(O)cc2)C(=O)N(C)[C@@H](C)C(=O)N[C@@H](CC(N)=O)C(=O)N2CCC[C@H]2C(=O)N[C@@H](CCC(N)=O)C(=O)N[C@@H](CCC(N)=O)C(=O)N2C[C@H](O)C[C@H]2C(=O)N[C@@H](Cc2c[nH]c3ccccc23)C(=O)N[C@@H](CC(N)=O)C(=O)N[C@@H](Cc2cn(CC(=O)O)c3ccccc23)C(=O)N1C` [Example 9021] and `CCCC[C@H]1C(=O)N(C)[C@@H](CCCC)C(=O)N[C@@H](CC(C)C)C(=O)N[C@H](C(=O)NCC(N)=O)CCCC(=O)N[C@@H](Cc2ccc(O)cc2)C(=O)N(C)[C@@H](C)C(=O)N[C@@H](CC(=O)O)C(=O)N2CCC[C@H]2C(=O)N[C@@H](Cc2c[nH]cn2)C(=O)N[C@@H](CCCCN)C(=O)N2C[C@H](O)C[C@H]2C(=O)N[C@@H](Cc2c[nH]c3ccccc23)C(=O)N[C@@H](CCCCN)C(=O)N[C@@H](Cc2cn(CC(=O)O)c3ccccc23)C(=O)N1C` [Example 10516] (Y[NMeA]DPHK[Hyp]WK[Trp(1-CH2COOH)][NMeNle][NMeNle]L[Aad]G-NH2; lactam N-14) fall in the same range of IC50: 10 to 99 nM for the first, 10 to 99 nM for the second.

`CCCC[C@H]1C(=O)N(C)[C@@H](CCCC)C(=O)N[C@@H](CC(C)C)C(=O)NCCCCC(=O)N[C@@H](Cc2ccc(F)cc2)C(=O)N2CCCC[C@H]2C(=O)N[C@@H](CC(N)=O)C(=O)N2CCC[C@H]2C(=O)N[C@@H](CN)C(=O)N[C@@H](CCC(=O)O)C(=O)N2C[C@H](O)C[C@H]2C(=O)N[C@@H](Cc2c[nH]c3ccccc23)C(=O)N[C@@H](CCN)C(=O)N[C@@H](Cc2cn(CC(=O)O)c3ccccc23)C(=O)N1C` [Example 10543] (cyclo([Ava][Phe(4-F)][Pip]NP[Dap]E[Hyp]W[Dab][Trp(1-CH2COOH)][NMeNle][NMeNle]L)) and `CCCC[C@H]1C(=O)N(C)[C@@H](CCCC)C(=O)N[C@@H](CC(C)C)C(=O)N[C@H](C(N)=O)CCCC(=O)N[C@@H](Cc2ccc(F)cc2)C(=O)N2CCCC[C@H]2C(=O)N[C@@H](CC(N)=O)C(=O)N2CCC[C@H]2C(=O)N[C@@H](CN)C(=O)N[C@@H](CCC(=O)O)C(=O)N2C[C@H](O)C[C@H]2C(=O)N[C@@H](Cc2c[nH]c3ccccc23)C(=O)N[C@@H](CCN)C(=O)N[C@@H](Cc2cn(CC(=O)O)c3ccccc23)C(=O)N1C` [Example 10532] ([Phe(4-F)][Pip]NP[Dap]E[Hyp]W[Dab][Trp(1-CH2COOH)][NMeNle][NMeNle]L[Aad]-NH2; lactam N-14) fall in the same range of IC50: 1 to 9.9 nM for the first, 1 to 9.9 nM for the second.

First: CCCC[C@H]1C(=O)N(C)[C@@H](CCCC)C(=O)N[C@@H](CC(C)C)C(=O)N[C@H](C(N)=O)CCCC(=O)N[C@@H](Cc2ccc(OC)cc2)C(=O)N2CCCC[C@H]2C(=O)N[C@@H](CC(N)=O)C(=O)N2CCC[C@H]2C(=O)N[C@@H](CN)C(=O)N[C@@H](CC(C)C)C(=O)N2C[C@H](O)C[C@H]2C(=O)N[C@@H](Cc2c[nH]c3ccccc23)C(=O)N[C@@H](CCN)C(=O)N[C@@H](Cc2cn(CC(=O)O)c3ccccc23)C(=O)N1C [Example 10525] (Y(Me)[Pip]NP[Dap]L[Hyp]W[Dab][Trp(1-CH2COOH)][NMeNle][NMeNle]L[Aad]-NH2; lactam N-14)
Second: CCCC[C@H]1C(=O)N(C)[C@@H](CCCC)C(=O)N[C@@H](CC(C)C)C(=O)N[C@H](C(N)=O)CNCC(=O)N[C@@H](Cc2ccc(O)cc2)C(=O)N2CCCC[C@H]2C(=O)N[C@@H](CC(N)=O)C(=O)N2CCC[C@H]2C(=O)N[C@@H](CN)C(=O)N[C@@H](CC(C)C)C(=O)N2C[C@H](O)C[C@H]2C(=O)N[C@@H](Cc2c[nH]c3ccccc23)C(=O)N[C@@H](CCN)C(=O)N[C@@H](Cc2cn(CC(=O)O)c3ccccc23)C(=O)N1C [Example 1038]
The IC50 of the first is higher: 10 to 99 nM for the first, 1 to 9.9 nM for the second. The second is the more potent here.

First: CCCC[C@H]1C(=O)N(C)[C@@H](CCCC)C(=O)N[C@@H](CC(C)C)C(=O)N[C@H](C(N)=O)COCC(=O)N[C@@H](Cc2ccc(F)cc2)C(=O)N2CCCC[C@H]2C(=O)N[C@@H](CC(N)=O)C(=O)N2CCC[C@H]2C(=O)N[C@@H](CN)C(=O)N[C@@H](CCC(=O)O)C(=O)N2C[C@H](O)C[C@H]2C(=O)N[C@@H](Cc2c[nH]c3ccccc23)C(=O)N[C@@H](CCN)C(=O)N[C@@H](Cc2cn(CC(=O)O)c3ccccc23)C(=O)N1C [Example 10531]
Second: CCCC[C@H]1C(=O)N(C)[C@@H](CCCC)C(=O)N[C@@H](CCC(=O)O)C(=O)N[C@H](C(N)=O)CCCC(=O)N[C@@H](Cc2ccc(F)cc2)C(=O)N2CCCC[C@H]2C(=O)N[C@@H](CC(N)=O)C(=O)N2CCC[C@H]2C(=O)N[C@@H](CN)C(=O)N[C@@H](CC(C)C)C(=O)N2C[C@H](O)C[C@H]2C(=O)N[C@@H](Cc2c[nH]c3ccccc23)C(=O)N[C@@H](CCN)C(=O)N[C@@H](Cc2cn(CC(=O)O)c3ccccc23)C(=O)N1C [Example 10564] ([Phe(4-F)][Pip]NP[Dap]L[Hyp]W[Dab][Trp(1-CH2COOH)][NMeNle][NMeNle]E[Aad]-NH2; lactam N-14)
The IC50 of the first is lower: 1 to 9.9 nM for the first, 10 to 99 nM for the second. The first is the more potent here.

Compared with `CCCC[C@H]1C(=O)N(C)[C@@H](CCCC)C(=O)N[C@@H](CC(C)C)C(=O)N2CCC[C@@H]2C(=O)NCC(=O)N[C@@H](Cc2ccc(O)cc2)C(=O)N(C)[C@@H](C)C(=O)N[C@@H](CC(N)=O)C(=O)N2CCC[C@H]2C(=O)N[C@@H](CN)C(=O)N[C@@H](CC(C)C)C(=O)N2C[C@H](O)C[C@H]2C(=O)N[C@@H](Cc2c[nH]c3ccccc23)C(=O)N[C@@H](CCN)C(=O)N[C@@H](Cc2c[nH]c3ccccc23)C(=O)N1C` [Example 5008] (cyclo([Dab]W[NMeNle][NMeNle]L[dP]GY[NMeA]NP[Dap]L[Hyp]W)), `CCCC[C@H]1C(=O)N(C)[C@@H](CCCC)C(=O)N[C@@H](CC(C)C)C(=O)NCCC[C@H](N)C(=O)N[C@@H](Cc2ccc(C)cc2)C(=O)N2CCCC[C@H]2C(=O)N[C@@H](CC(N)=O)C(=O)N2CCC[C@H]2C(=O)N[C@@H](CN)C(=O)N[C@@H](CC(C)C)C(=O)N2C[C@H](O)C[C@H]2C(=O)N[C@@H](Cc2c[nH]c3ccccc23)C(=O)N[C@@H](CCN)C(=O)N[C@@H](Cc2cn(CC(=O)O)c3ccccc23)C(=O)N1C` [Example 10519] (H-[Orn][Phe(4-Me)][Pip]NP[Dap]L[Hyp]W[Dab][Trp(1-CH2COOH)][NMeNle][NMeNle]L; lactam 1-C) is higher in IC50: 1 to 9.9 nM for the first, 10 to 99 nM for the second.
